This is an account of results in US20260001928A1 (CORTERIA PHARMACEUTICALS, priority 2022, published 2026).

For orientation: fraction remaining means what is left of the initial amount, in per cent. The term pEC50 denotes −log10 of the EC50, conventionally taken in molar units.

Data set [1] can be described thus: In vitro subcutaneous tissue supernatant (SCts) stability and metabolite identification, rat. Format: in vitro ADME. On the set-up: remaining at 2 h: dose or concentration left out as unconfirmed. The conditions noted are these: for remaining at 2 h: male, Sprague Dawley, rat subcutaneous tissue supernatant (SCts), 37° C. The method, then: In vitro metabolic stability in subcutaneous tissue supernatant (SCts) was studied in male Sprague Dawley rats. Test compounds were incubated […] for 2 hours at 37° C.
Software aided in vitro metabolite identification on SCts stability samples was performed using either Metabolite Pilot (Sciex) or Biopharma Finder (Thermo). In addition, metabolite identification using Metabolite Pilot was performed on plasma samples of Comp Y following SC administration to rat at 1 mg/kg.

For the next data set, the target named is T1, human CRF2a receptor (Homo sapiens, UniProt Q13324).
T1 construct: expressed in transfected cells; host or cells: TeloHEAC cells
T1 sequence (Q13324 1-411): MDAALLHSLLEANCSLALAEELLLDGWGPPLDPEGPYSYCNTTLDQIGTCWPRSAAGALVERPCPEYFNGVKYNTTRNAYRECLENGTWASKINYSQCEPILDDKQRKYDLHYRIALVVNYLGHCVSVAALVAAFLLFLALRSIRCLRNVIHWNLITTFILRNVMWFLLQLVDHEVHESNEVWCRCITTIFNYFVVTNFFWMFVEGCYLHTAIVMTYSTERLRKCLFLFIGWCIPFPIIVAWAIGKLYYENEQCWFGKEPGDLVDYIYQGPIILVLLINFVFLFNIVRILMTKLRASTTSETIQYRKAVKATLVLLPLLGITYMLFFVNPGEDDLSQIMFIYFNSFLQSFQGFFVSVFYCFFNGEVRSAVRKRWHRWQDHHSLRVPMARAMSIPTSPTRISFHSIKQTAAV
Put plainly: Activity at human CRF2a receptor, cAMP functional assay in TeloHEAC cells. The data set is classed as cell-based. The settings on record: TeloHEAC cells stably expressing human CRF2a receptor, relative to urocortin 2 (100 nM = 100%). In outline: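 TeloHEAC cells stably expressing human CRF2a (10000 cells/well, suspended in HBSS/20 mM HEPES with 2 mM IBMX) were exposed to compounds for 30 min at 37 °C. cAMP was read as the 665/620 nm fluorescence ratio after 1 h at room temperature. EC50 was derived relative to 100 nM urocortin 2, set as 100%.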

The target of a further data set is T2, CFR1R receptor (Homo sapiens, UniProt P34998).
T2 construct: host or cells: CHO-K1 (clone 2)
T2 sequence (P34998 24-415): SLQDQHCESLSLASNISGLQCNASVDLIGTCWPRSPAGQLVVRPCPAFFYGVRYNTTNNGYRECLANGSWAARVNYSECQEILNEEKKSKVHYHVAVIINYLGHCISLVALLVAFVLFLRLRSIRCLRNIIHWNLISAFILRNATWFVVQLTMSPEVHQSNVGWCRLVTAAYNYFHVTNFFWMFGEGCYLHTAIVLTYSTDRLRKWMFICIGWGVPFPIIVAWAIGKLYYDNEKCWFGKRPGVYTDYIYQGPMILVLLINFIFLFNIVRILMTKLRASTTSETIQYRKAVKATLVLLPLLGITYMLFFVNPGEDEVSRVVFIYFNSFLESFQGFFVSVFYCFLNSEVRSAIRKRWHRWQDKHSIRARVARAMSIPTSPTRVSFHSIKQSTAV
Kind of data set: Activity at anti-target CFR1R receptor, cAMP assay in CRF1R-overexpression CHO-K1 cells. The conditions noted are these: 100% = Sauvagine at 100 nM. Format: cell-based. The procedure, abridged: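 Run as for the TeloHAEC line, except the full-activation control well received Sauvagine (100 nM) and final density was 4000 cells/well. Cells from clone 2 came from frozen aliquots of near-confluent cultures.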

SMILES strings stand for the structures. pEC50: −log10 of the molar value. *1 amine or outer side, *2 acyl side, *3 side chain or, on linkers, in order; H or OH if unused. Where a SMILES comes first, the peptide text is derived from it. Side-chain parts run from the residue outwards. [ ]: non-standard residue; d: D form. The star is where a group is joined. C18 diacid = O=C(O)CCCCCCCCCCCCCCCCC(=O)*; C16 diacid = O=C(O)CCCCCCCCCCCCCCC(=O)*; γGlu = O=C(O)[C@H](CCC(=O)[*:2])N[*:1]; Pentanoyl = CCCCC(=O)*; AEEA = NCCOCCOCC(=O)O

`CC[C@H](C)[C@H](N)C(=O)N[C@H](C(=O)N[C@@H](CC(C)C)C(=O)N[C@@H](CO)C(=O)N[C@@H](CC(C)C)C(=O)N[C@@H](CC(=O)O)C(=O)N[C@H](C(=O)N1CCC[C@H]1C(=O)N[C@H](C(=O)N[C@@H](CCCCN)C(=O)N[C@@H](CC(C)C)C(=O)N[C@@H](CCCCNC(=O)COCCOCCNC(=O)COCCOCCNC(=O)CC[C@H](NC(=O)CCCCCCCCCCCCCCCCC(=O)O)C(=O)O)C(=O)N[C@@H](CCCCN)C(=O)N[C@H](C(=O)N[C@@H](CC(C)C)C(=O)N[C@@H](CC(C)C)C(=O)N[C@@H](CCC(=O)O)C(=O)N[C@@H](CCC(N)=O)C(=O)N[C@@H](CCC(=O)O)C(=O)N[C@@H](CCCCN)C(=O)N[C@@H](CCC(N)=O)C(=O)N[C@@H](CCCCN)C(=O)N[C@@H](CCCCN)C(=O)N[C@@H](CCC(N)=O)C(=O)N[C@@H](CCCNC(=N)N)C(=O)N[C@@H](CCC(=O)O)C(=O)N[C@@H](CCC(N)=O)C(=O)N[C@@H](C)C(=O)N[C@@H](CCC(=O)O)C(=O)N[C@H](C(=O)N[C@@H](CC(N)=O)C(=O)N[C@@H](CCCCN)C(=O)N[C@@H](CCC(N)=O)C(=O)N[C@H](C(=O)N[C@@H](CC(C)C)C(=O)N[C@@H](C)C(=O)N[C@@H](CCC(N)=O)C(=O)N[C@H](C(N)=O)C(C)C)[C@@H](C)CC)[C@@H](C)O)[C@@H](C)CC)[C@@H](C)CC)C(C)C)C(C)C` [149 (CompY)] (H-IVLSLDVPIKLK([AEEA-AEEA-γGlu-C18 diacid])KILLEQEKQKKQREQAETNKQILAQV-NH2): the fraction remaining at 2 h in data set [1] was 4%. `CC[C@H](C)[C@H](N)C(=O)N[C@H](C(=O)N[C@@H](CC(C)C)C(=O)N[C@@H](CO)C(=O)N[C@@H](CC(C)C)C(=O)N[C@@H](CC(=O)O)C(=O)N[C@@H](C(=O)N1CCC[C@H]1C(=O)N[C@H](C(=O)N[C@@H](CCCCN)C(=O)N[C@@H](CC(C)C)C(=O)N[C@@H](CCCCNC(=O)CC[C@H](NC(=O)CCCCCCCCCCCCCCC(=O)O)C(=O)O)C(=O)N[C@@H](CCC(N)=O)C(=O)N[C@H](C(=O)N[C@@H](CC(C)C)C(=O)N[C@@H](CC(C)C)C(=O)N[C@@H](CCCCN)C(=O)N[C@@H](CCC(N)=O)C(=O)N[C@@H](CCC(=O)O)C(=O)N[C@@H](CCCNC(=N)N)C(=O)N[C@@H](CCC(N)=O)C(=O)N[C@@H](CCCCN)C(=O)N[C@@H](CCCCN)C(=O)N[C@@H](CCC(N)=O)C(=O)N[C@@H](CCCNC(=N)N)C(=O)N[C@@H](CCC(=O)O)C(=O)N[C@@H](CCC(N)=O)C(=O)N[C@@H](C)C(=O)N[C@@H](CCC(=O)O)C(=O)N[C@@H](CCCCN)C(=O)N[C@@H](CC(N)=O)C(=O)N[C@@H](CCCCN)C(=O)N[C@@H](CCC(N)=O)C(=O)N[C@H](C(=O)N[C@@H](CC(C)C)C(=O)N[C@@H](CCC(=O)O)C(=O)N[C@@H](CCC(N)=O)C(=O)N[C@H](C(N)=O)C(C)C)[C@@H](C)CC)[C@@H](C)CC)[C@@H](C)CC)C(C)C)C(C)C` [SEQ ID No. 151, reference compound] (H-IVLSLD[dV]PIKLK([γGlu-C16 diacid])QILLKQERQKKQREQAEKNKQILEQV-NH2): the “major metabolic soft spot, in vitro” value in data set [1] (in vitro soft spot identification, rat SCts) is “N-terminus”. With `CCCCC(=O)N[C@H](C(=O)N[C@@H](CC(C)C)C(=O)N[C@@H](CO)C(=O)N[C@@H](CC(C)C)C(=O)N[C@@H](CC(=O)O)C(=O)N[C@@H](C(=O)N1CCC[C@H]1C(=O)N[C@H](C(=O)N[C@@H](CCCCN)C(=O)N[C@@H](CC(C)C)C(=O)N[C@@H](CCCCNC(=O)COCCOCCNC(=O)COCCOCCNC(=O)CC[C@H](NC(=O)CCCCCCCCCCCCCCCCC(=O)O)C(=O)O)C(=O)N[C@@H](CCCCN)C(=O)N[C@H](C(=O)N[C@@H](CC(C)C)C(=O)N[C@@H](CC(C)C)C(=O)N[C@@H](CCC(=O)O)C(=O)N[C@@H](CCC(N)=O)C(=O)N[C@@H](CCC(=O)O)C(=O)N[C@@H](CCCCN)C(=O)N[C@@H](CCC(N)=O)C(=O)N[C@@H](CCCCN)C(=O)N[C@@H](CCCCN)C(=O)N[C@@H](CCC(N)=O)C(=O)N[C@@H](CCCNC(=N)N)C(=O)N[C@@H](CCC(=O)O)C(=O)N[C@@H](CCC(N)=O)C(=O)N[C@@H](C)C(=O)N[C@@H](CCC(=O)O)C(=O)N[C@H](C(=O)N[C@@H](CC(N)=O)C(=O)N[C@H](C(=O)N[C@@H](CCC(N)=O)C(=O)N[C@H](C(=O)N[C@@H](CC(C)C)C(=O)N[C@@H](C)C(=O)N[C@@H](CCC(N)=O)C(=O)N[C@H](C(N)=O)C(C)C)[C@@H](C)CC)C(C)C)[C@@H](C)O)[C@@H](C)CC)[C@@H](C)CC)C(C)C)C(C)C` [compound 121] (Pentanoyl-VLSLD[dV]PIKLK([AEEA-AEEA-γGlu-C18 diacid])KILLEQEKQKKQREQAETNVQILAQV-NH2), the negative-log EC50 (pEC50) at human CRF2a receptor was 8.24; on CFR1R receptor (cAMP), < 6.60. Moreover, on CFR1R receptor, the “Emax (% I)” value worked out at 6 % I. For the same compound, the amount remaining at 2 h in data set [1] amounted to 77%. Regarding `CC[C@H](C)[C@H](N)C(=O)N[C@H](C(=O)N[C@@H](CC(C)C)C(=O)N[C@@H](CO)C(=O)N[C@@H](CC(C)C)C(=O)N[C@@H](CC(=O)O)C(=O)N[C@H](C(=O)N1CCC[C@H]1C(=O)N[C@H](C(=O)N[C@@H](CCCCN)C(=O)N[C@@H](CC(C)C)C(=O)N[C@@H](CCCCNC(=O)CC[C@H](NC(=O)CCCCCCCCCCCCCCC(=O)O)C(=O)O)C(=O)N[C@@H](CCC(N)=O)C(=O)N[C@H](C(=O)N[C@@H](CC(C)C)C(=O)N[C@@H](CC(C)C)C(=O)N[C@@H](CCCCN)C(=O)N[C@@H](CCC(N)=O)C(=O)N[C@@H](CCC(=O)O)C(=O)N[C@@H](CCCNC(=N)N)C(=O)N[C@@H](CCC(N)=O)C(=O)N[C@@H](CCCCN)C(=O)N[C@@H](CCCCN)C(=O)N[C@@H](CCC(N)=O)C(=O)N[C@@H](CCCNC(=N)N)C(=O)N[C@@H](CCC(=O)O)C(=O)N[C@@H](CCC(N)=O)C(=O)N[C@@H](C)C(=O)N[C@@H](CCC(=O)O)C(=O)N[C@@H](CCCCN)C(=O)N[C@@H](CC(N)=O)C(=O)N[C@@H](CCCCN)C(=O)N[C@@H](CCC(N)=O)C(=O)N[C@H](C(=O)N[C@@H](CC(C)C)C(=O)N[C@@H](CCC(=O)O)C(=O)N[C@@H](CCC(N)=O)C(=O)N[C@H](C(N)=O)C(C)C)[C@@H](C)CC)[C@@H](C)CC)[C@@H](C)CC)C(C)C)C(C)C` [151 (CompX)] (H-IVLSLDVPIKLK([γGlu-C16 diacid])QILLKQERQKKQREQAEKNKQILEQV-NH2), the fraction remaining at 2 h in data set [1] came to 0%.
